For this assay, the target named is T1, ROCKα/ROCKII (Homo sapiens, UniProt O75116).
T1 construct: purchased Upstate Biotechnology 14-451
Description: ROCK inhibition, Method 2 fluorescence polarization (FP) assay, ROCK IMAP Kit. Format: biochemical. As to conditions: 10 μM ATP, read-out: IC50 Meth. 2. As for the experimental part:
The inhibition assays were performed with a fluorescence polarization (FP) assay using the commercially available ROCK IMAP Kit from Molecular Devices (Product ID. No. R8093), essentially in accordance with the protocol supplied by the manufacturer. […] The enzyme mix ROCKα/ROCKII was obtained from Upstate Biotechnology (Product ID No 14-451).
In summary, all compounds were screened in the wells of a 384 well plate for enzymatic inhibition with concentrations varying from 100 μM to 0.3 nM using a stepwise 3 (or 2)-fold dilution.
To perform the assay, 1 μl of a solution of the compound to be tested in DMSO (at each concentration) was added to 2 μl of a solution of the enzyme in 10 mM Tris-HCl, 10 mM MgCl2, 0.1% BSA, 0.05% NaN3, pH 7,2. The final concentration of the enzyme was 2.6 nM.
After incubating for 30 minutes at RT, 2 μl of a mixture of ATP and the protein substrate in 10 mM Tris-HCl, 10 mM MgCl2, 0.1% BSA, 0.05% NaN3, pH 7.2 was added. The final concentration of the ATP was 10 μM and final concentration of protein substrate was 0.2 μM.
After incubating for 60 minutes at RT, 12 μl of the IMAP Binding Solution (mix of the IMAP Binding Buffer A (1×) and the IMAP Binding Reagent (from the ROCK IMAP kit)) was added.
The mixture thus obtained (total volume: 17 μl) was incubated for 60 minutes at RT, upon which the fluorescence polarization was measured using an automated plate reader (Perkin Elmer, Model Envision 2100-0010 HTS) with FP filters: excitation filter FITC FP 480 and emission filters FITC FP P-pol 535 and FITC FP S-pol 535 (Perkin-Elmer). The results were fitted to a curve using the XL-Fit algorithm and IC50 values were calculated for each fitted curve, again using the XL-Fit algorithm.
(In general: In fluorescence polarisation assays a small probe gives low polarisation when free and higher when bound to something large.)

T1 sequence (O75116 whole entry): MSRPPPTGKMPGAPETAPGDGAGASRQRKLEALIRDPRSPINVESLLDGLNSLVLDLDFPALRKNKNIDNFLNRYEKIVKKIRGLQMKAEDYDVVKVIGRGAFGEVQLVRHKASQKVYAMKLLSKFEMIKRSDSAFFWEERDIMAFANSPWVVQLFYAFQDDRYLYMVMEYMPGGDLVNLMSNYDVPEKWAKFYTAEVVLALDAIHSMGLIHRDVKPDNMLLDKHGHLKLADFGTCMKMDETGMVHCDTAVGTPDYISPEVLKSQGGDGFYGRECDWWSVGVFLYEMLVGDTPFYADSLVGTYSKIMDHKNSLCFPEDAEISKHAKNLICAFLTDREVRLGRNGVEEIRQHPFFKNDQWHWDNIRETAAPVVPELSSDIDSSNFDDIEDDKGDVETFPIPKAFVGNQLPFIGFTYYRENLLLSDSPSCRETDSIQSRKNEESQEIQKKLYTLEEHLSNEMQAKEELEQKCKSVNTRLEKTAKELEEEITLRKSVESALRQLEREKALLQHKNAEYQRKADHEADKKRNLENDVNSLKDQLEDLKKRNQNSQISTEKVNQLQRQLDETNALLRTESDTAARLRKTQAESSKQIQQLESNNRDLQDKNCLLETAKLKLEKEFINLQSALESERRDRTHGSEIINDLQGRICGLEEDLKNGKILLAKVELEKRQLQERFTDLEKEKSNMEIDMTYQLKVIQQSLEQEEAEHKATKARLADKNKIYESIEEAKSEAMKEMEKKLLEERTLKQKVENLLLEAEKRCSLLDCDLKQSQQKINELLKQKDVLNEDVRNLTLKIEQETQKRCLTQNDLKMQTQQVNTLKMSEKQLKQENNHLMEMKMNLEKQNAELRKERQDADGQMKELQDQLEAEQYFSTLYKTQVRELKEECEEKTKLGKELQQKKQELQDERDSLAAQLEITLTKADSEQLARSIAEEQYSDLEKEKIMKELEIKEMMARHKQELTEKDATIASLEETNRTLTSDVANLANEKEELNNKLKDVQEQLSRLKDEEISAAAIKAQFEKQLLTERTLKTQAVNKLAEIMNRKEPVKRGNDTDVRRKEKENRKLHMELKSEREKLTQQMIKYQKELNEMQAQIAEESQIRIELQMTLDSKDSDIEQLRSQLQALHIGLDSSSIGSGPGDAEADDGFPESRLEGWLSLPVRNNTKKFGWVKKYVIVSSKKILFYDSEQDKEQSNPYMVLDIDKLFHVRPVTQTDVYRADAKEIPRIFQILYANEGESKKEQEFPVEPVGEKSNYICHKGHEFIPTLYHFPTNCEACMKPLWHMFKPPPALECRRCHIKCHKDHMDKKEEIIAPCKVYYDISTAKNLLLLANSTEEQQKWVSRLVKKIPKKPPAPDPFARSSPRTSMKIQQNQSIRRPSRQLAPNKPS

With `CCCOC(=O)c1cccc(-c2cc(C(=O)Nc3ccncc3F)ccc2CN)c1` [Compound 174], the IC50 (commonly the concentration that inhibits the measured activity by half) is 100 to 1000 nM. The same measure for `CCOC(=O)CSCC(=O)Nc1cccc(-c2cc(C(=O)Nc3ccncc3)ccc2C(C)N)c1` (centres unmarked) [Compound 154, {[2′-(1-Aminoethyl)-5′-(pyridin-4-ylcarbamoyl)-biphenyl-3-ylcarbamoyl]-methylsulfanyl}-acetic acid ethyl ester]: under 100 nM; for `COc1cc(OC(=O)c2cccc(-c3cc(C(=O)Nc4ccncc4F)ccc3C(C)N)c2)cc(OC)c1OC` (centres unmarked) [Compound 79, 2′-(1-Amino-ethyl)-5′-(3-fluoro-pyridin-4-ylcarbamoyl)-biphenyl-3-carboxylic acid 3,4,5-trimethoxy phenylester]: under 100 nM; for `COc1cc(OC(=O)c2cccc(-c3cc(C(=O)Nc4ccncc4)ccc3C(C)N)c2)cc(OC)c1OC` (centres unmarked) [Compound 80, 2′-(1-Amino-ethyl)-5′-(pyridin-4-ylcarbamoyl)-biphenyl-3-carboxylic acid 3,4,5-trimethoxy-phenyl ester]: 100 to 1000 nM. For `CCCCCCCCCCOC(=O)c1cccc(-c2cc(C(=O)Nc3ccncc3)ccc2C(C)N)c1` (centres unmarked) [Compound 20, 2′-(1-Amino-ethyl)-5′-(pyridin-4-ylcarbamoyl)-biphenyl-3-carboxylic acid decyl ester], the IC50 was in the range of 1000 to 10000 nM. On to `CCCCCCCCCCCOC(=O)c1cccc(-c2cc(C(=O)Nc3ccncc3)ccc2C(C)N)c1` (centres unmarked) [Compound 21, 2′-(1-Amino-ethyl)-5′-(pyridin-4-ylcarbamoyl)-biphenyl-3-carboxylic acid undecyl ester], for which the IC50 fell in the range of 1000 to 10000 nM.

For “2′-(1-Amino-ethyl)-5′- (pyridin-4-ylcarbamoyl)- biphenyl-3-carboxylic acid 2-(toluene-4-sulfonyl)-ethyl ester [Compound 89]”, the IC50 was in the range of 100 to 1000 nM. The result for `CCOC(=O)CCNC(=O)c1cccc(-c2cc(C(=O)Nc3ccncc3)ccc2C(C)N)c1` (centres unmarked) [Compound 105, 3-{[2′-(1-Amino-ethyl)-5′-(pyridin-4-ylcarbamoyl)-biphenyl-3-carbonyl]-amino}-propionic acid ethyl ester] reads under 100 nM; that for `CCCCCCCCCCCCOC(=O)c1cccc(-c2cc(C(=O)Nc3ccncc3)ccc2C(C)N)c1` (centres unmarked) [Compound 22, 2′-(1-Amino-ethyl)-5′-(pyridin-4-ylcarbamoyl)-biphenyl-3-carboxylic acid dodecyl ester], 1000 to 10000 nM. On to `CC(N)c1ccc(C(=O)Nc2ccncc2)cc1-c1cccc(C(=O)OCCCl)c1` (centres unmarked) [Compound 62, 2′-(1-Amino-ethyl)-5′-(pyridin-4-ylcarbamoyl)-biphenyl-3-carboxylic acid 2-chloro-ethyl ester], for which the IC50 is under 100 nM.

Take `NCc1ccc(C(=O)Nc2ccncc2F)cc1-c1cccc(C(=O)Oc2ccccc2)c1` [Compound 175]: the IC50 was under 100 nM. The result for `CC(N)c1ccc(C(=O)Nc2ccncc2)cc1-c1cccc(C(=O)OCc2c(F)c(F)c(F)c(F)c2F)c1` (centres unmarked) [Compound 83, 2′-(1-Amino-ethyl)-5′-(pyridin-4-ylcarbamoyl)-biphenyl-3-carboxylic acid pentafluoro-phenylmethyl ester] reads 100 to 1000 nM; that for `CC(N)c1ccc(C(=O)Nc2ccncc2)cc1-c1cccc(C(=O)OCCN2C(=O)c3ccccc3C2=O)c1` (centres unmarked) [Compound 95, 2′-(1-Amino-ethyl)-5′-(pyridin-4-ylcarbamoyl)-biphenyl-3-carboxylic acid 2-(1,3-dioxo-1,3-dihydro-isoindol-2-yl)-ethyl ester], 100 to 1000 nM. For `CC(N)c1ccc(C(=O)Nc2ccncc2)cc1-c1cccc2[nH]c(C(=O)Oc3ccccc3)cc12` (centres unmarked) [Compound 173, 4-[2-(1-Amino-ethyl)-5-(pyridin-4-ylcarbamoyl)-phenyl]-1H-indole-2-carboxylic acid phenyl ester], the IC50 lay within 100 to 1000 nM.

Take `COc1cc(OC)cc(OC(=O)c2cccc(-c3cc(C(=O)Nc4ccncc4)ccc3C(C)N)c2)c1` (centres unmarked) [Compound 75, 2′-(1-Amino-ethyl)-5′-(pyridin-4-ylcarbamoyl)-biphenyl-3-carboxylic acid 3,5-dimethoxy-phenyl ester]: the IC50 was under 100 nM. On to `CC(N)c1ccc(C(=O)Nc2ccncc2)cc1-c1cccc(C(=O)OC2CCCC2)c1` (centres unmarked) [Compound 33, 2′-(1-Amino-ethyl)-5′-(pyridin-4-ylcarbamoyl)-biphenyl-3-carboxylic acid cyclopentyl ester], for which the IC50 was under 100 nM. The same measure for `CC(N)c1ccc(C(=O)Nc2ccncc2)cc1-c1cccc(C(=O)OCC2CCc3ccccc3C2)c1` (centres unmarked) [Compound 94, 2′-(1-Amino-ethyl)-5′-(pyridin-4-ylcarbamoyl)-biphenyl-3-carboxylic acid 1,2,3,4-tetrahydro-naphthalen-2-ylmethyl ester]: 100 to 1000 nM. On to `COc1ccc(OC(=O)c2cccc(-c3cc(C(=O)Nc4ccncc4)ccc3C(C)N)c2)cc1OC` (centres unmarked) [Compound 77, 2′-(1-Amino-ethyl)-5′-(pyridin-4-ylcarbamoyl)-biphenyl-3-carboxylic acid 3,4-dimethoxy-phenyl ester], for which the IC50 was under 100 nM. The same measure for `COc1ccc(OC(=O)c2cccc(-c3cc(C(=O)Nc4ccncc4)ccc3C(C)N)c2)c(OC)c1OC` (centres unmarked) [Compound 81, 2′-(1-Amino-ethyl)-5′-(pyridin-4-ylcarbamoyl)-biphenyl-3-carboxylic acid 2,3,4-trimethoxy-phenyl ester]: under 100 nM; for `CC(N)c1ccc(C(=O)Nc2ccncc2)cc1-c1cccc(C(=O)OCCc2cccs2)c1` (centres unmarked) [Compound 91, 2′-(1-Amino-ethyl)-5′-(pyridin-4-ylcarbamoyl)-biphenyl-3-carboxylic acid 2-thiophen-2-yl-ethyl ester]: 100 to 1000 nM; for `COc1ccc(OC(=O)c2cccc(-c3cc(C(=O)Nc4ccncc4F)ccc3C(C)N)c2)cc1OC` (centres unmarked) [Compound 78, 2′-(1-Amino-ethyl)-5′-(3-fluoro-pyridin-4-ylcarbamoyl)-biphenyl-3-carboxylic acid 3,4-dimethoxy-phenyl ester]: under 100 nM. The same measure for `CSc1ccc(OC(=O)c2cccc(-c3cc(C(=O)Nc4ccncc4)ccc3C(C)N)c2)cc1` (centres unmarked) [Compound 82, 2′-(1-Amino-ethyl)-5′-(pyridin-4-ylcarbamoyl)-biphenyl-3-carboxylic acid 4-methylsulfanyl-phenyl ester]: under 100 nM; for `CC(N)c1ccc(C(=O)Nc2ccncc2)cc1-c1cccc(C(=O)OCC(Cl)(Cl)Cl)c1` (centres unmarked) [Compound 64, 2′-(1-Amino-ethyl)-5′-(pyridin-4-ylcarbamoyl)-biphenyl-3-carboxylic acid 2,2,2-trichloro-ethyl ester]: under 100 nM.

For `CC(N)c1ccc(C(=O)Nc2ccncc2)cc1-c1cccc(OCCSC2CCOC2=O)c1` (centres unmarked) [Compound 130, 6-(1-Amino-ethyl)-3′-[2-(2-oxo-tetrahydro-furan-3-ylsulfanyl)-ethoxy]-biphenyl-3-carboxylylic acid pyridin-4-ylamide], the IC50 was under 100 nM. The same measure for `CCCCCCCOC(=O)c1cccc(-c2cc(C(=O)Nc3ccncc3)ccc2C(C)N)c1` (centres unmarked) [Compound 18, 2′-(1-Amino-ethyl)-5′-(pyridin-4-ylcarbamoyl)-biphenyl-3-carboxylic acid heptyl ester]: 100 to 1000 nM; for `CCOC(=O)c1cccc(-c2cc(C(=O)Nc3ccncc3F)ccc2C(C)N)c1` (centres unmarked) [Compound 9, 2′-(1-Amino-ethyl)-5′-(3-fluoro-pyridin-4-ylcarbamoyl)-biphenyl-3-carboxylic acid ethyl ester]: under 100 nM; for `CC(N)c1ccc(C(=O)Nc2ccncc2F)cc1-c1cccc(OCC(=O)Oc2ccccc2)c1` (centres unmarked) [Compound 142, [2′-(1-Amino-ethyl)-5′-(3-fluoro-pyridin-4-ylcarbamoyl)-biphenyl-3-yloxy]-acetic acid phenyl ester]: 100 to 1000 nM. With `CCCCCOC(=O)c1cccc(-c2cc(C(=O)Nc3ccncc3)ccc2C(C)N)c1` (centres unmarked) [Compound 16, 2′-(1-Amino-ethyl)-5′-(pyridin-4-ylcarbamoyl)-biphenyl-3-carboxylic acid pentyl ester], the IC50 was 100 to 1000 nM. As to `CC(N)c1ccc(C(=O)Nc2ccncc2F)cc1-c1cccc(C(=O)OCCCO)c1` (centres unmarked) [Compound 68, 2′-(1-Amino-ethyl)-5′-(3-fluoro-pyridin-4-ylcarbamoyl)-biphenyl-3-carboxylic acid 3-hydroxy-propyl ester], the concentration for half-maximal inhibition (IC50) was under 100 nM.

The record behind these values is US8912209B2, “Rock inhibitors” (Amakem NV, priority 2010, dated 2014).
